# From US20150307520A1, “NOVEL HETEROARYL AND HETEROCYCLE COMPOUNDS, COMPOSITIONS AND METHODS THEREOF” (HUTCHISON MEDIPHARMA LIMITED, priority 2012, published 2015)
# Assays:
# p110γ = p110γ (Homo sapiens, UniProt P48736); experiment: Transcreener KINASE Assay, kinase inhibition of p110γ; type: biochemical; settings: for PI3Kγ IH % @ 1 uM: 1 uM test compound; for IC50: read-out: PI3Kγ IC50
# Procedure, shortened: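 Homogeneous endpoint format using recombinant enzymes; ADP measured by far-red FP immunoassay after 80 min reaction and 60 min detection, both at room temperature.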
# p110β/p85α = p110β/p85α (Homo sapiens, UniProt P42338); experiment: Transcreener KINASE Assay, kinase inhibition of p110β/p85α; type: biochemical; settings: for PI3Kβ IH % @ 1 uM: 1 uM test compound; for IC50: read-out: PI3Kβ IC50
# Procedure, shortened: (§1)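 Kinase reactions run 80 min at room temperature, pH buffered with 50 mM HEPES plus 3 mM MgCl2 and 0.03% CHAPS; the PIP2/ATP mix added was 30 uM/10 uM. Generated ADP is then read by FP immunoassay.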
# PI3Kγ = PI3Kγ (Mus musculus, UniProt Q9JHG7); experiment: Acumen Assay - Raw264.7 p-AKT Assay (C5a stimulated); type: cell-based; settings: Raw264.7 macrophage cells, compound 30 min, stimulated with 10 nM C5a for 5 min, p-AKT (Ser473) readout; read-out: PI3Kγ cell-C5a Raw264.7 IC50
# Chain of PI3Kγ (Q9JHG7 whole entry): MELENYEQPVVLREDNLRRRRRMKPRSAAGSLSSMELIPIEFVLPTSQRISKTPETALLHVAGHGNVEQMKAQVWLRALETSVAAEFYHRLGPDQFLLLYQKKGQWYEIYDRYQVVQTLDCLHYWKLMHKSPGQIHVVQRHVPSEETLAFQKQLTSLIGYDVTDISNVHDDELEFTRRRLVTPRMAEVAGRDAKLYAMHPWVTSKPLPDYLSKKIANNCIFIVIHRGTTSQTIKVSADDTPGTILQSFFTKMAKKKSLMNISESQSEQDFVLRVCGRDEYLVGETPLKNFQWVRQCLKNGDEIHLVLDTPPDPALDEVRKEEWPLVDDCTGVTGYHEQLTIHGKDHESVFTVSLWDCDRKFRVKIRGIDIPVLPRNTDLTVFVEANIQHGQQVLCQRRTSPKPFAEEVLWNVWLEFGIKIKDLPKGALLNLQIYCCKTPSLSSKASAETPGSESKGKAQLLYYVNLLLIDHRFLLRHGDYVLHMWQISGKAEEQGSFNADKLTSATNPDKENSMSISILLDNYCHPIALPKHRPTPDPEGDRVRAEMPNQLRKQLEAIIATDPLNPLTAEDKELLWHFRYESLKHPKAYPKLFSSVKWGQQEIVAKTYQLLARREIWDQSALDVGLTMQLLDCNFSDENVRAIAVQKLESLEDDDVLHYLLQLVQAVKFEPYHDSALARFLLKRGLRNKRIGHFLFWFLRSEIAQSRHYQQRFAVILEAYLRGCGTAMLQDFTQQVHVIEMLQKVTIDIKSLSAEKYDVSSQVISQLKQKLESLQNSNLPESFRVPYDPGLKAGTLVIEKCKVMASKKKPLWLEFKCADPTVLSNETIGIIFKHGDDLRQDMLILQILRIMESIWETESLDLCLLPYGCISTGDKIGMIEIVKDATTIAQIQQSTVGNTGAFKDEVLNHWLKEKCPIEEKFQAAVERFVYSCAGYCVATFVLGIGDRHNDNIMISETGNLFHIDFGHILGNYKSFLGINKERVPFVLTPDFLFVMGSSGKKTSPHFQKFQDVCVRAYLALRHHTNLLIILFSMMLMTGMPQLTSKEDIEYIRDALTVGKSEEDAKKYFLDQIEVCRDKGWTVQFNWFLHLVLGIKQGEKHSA
# Description: Acumen Assay—Raw264.7 p-AKT Assay
# Acumen® eX3 (A Multilaser Microplate Cytometer For Enhanced High Content Screening): TTP LabTech
# 3×10^4 Raw264.7 macrophage cells were seeded into 96-well plates with DMEM+10% heat-inactivated FBS at […], 90 ul/well, overnight. After starvation for 3 hr at 37° C. under 5% CO2, Raw264.7 cells were treated with 10 ul/well various concentrations of compound or 0.5% DMSO for 30 min, and then stimulated with 10 ul/well 10 nM C5a for 5 min.
# 1.) Cells were fixed 110 μL of 4% pre-warmed Paraformaldehyde (2% final), incubate for 45 min at room temperature. 2.) Remove paraformaldehyde solution. Add 100 μL of ice-cold 0.1% Triton X-100 in PBS and leave at 4° C. for 30 min. 3.) Wash once in 100 μL PBS. 4.) Incubate with 100 μL blocking buffer (1% BSA, in PBS) for 2 hours at room temperature. 5.) Wash once for 5 min with 100 ul PBS. 6.) Incubate with 40 μL 1:200 dilution of phospho AKT (Ser473) rabbit antibody in antibody dilution buffer (0.1% BSA, in PBS) overnight at 4° C. 7.) Wash for 3 times for 10 min with 100 ul PBS. 8.) Incubate for 90 min at room temperature with 50 μL of goat anti-rabbit Alex488 antibody at a 1:1,000 dilution in antibody dilution buffer (0.1% BSA, in PBS). Cover plate in foil to keep out of light. 9.) Wash for 3 times for 10 min with 100 μL PBS. 10.) Add 50 μL of 1.5 μM Propidium Iodide solution to each well to determine cell number at a 1:1,000 dilution in PBS (stock: 1.5 mM). 11.) Incubate at room temperature for 30 min. 12.) Seal the plate with a black cover-seal (supplied with plate). 13.) Load the plate into the Acumen Explorer and scan with the appropriate instrument settings.
# p110δ/p85α = p110δ/p85α (Homo sapiens, UniProt O00329); experiment: Transcreener KINASE Assay, kinase inhibition of p110δ/p85α; type: biochemical; settings: for PI3Kδ IH % @ 1 uM: 1 uM test compound; for IC50: read-out: PI3Kδ IC50
# Chain of p110δ/p85α (O00329 whole entry): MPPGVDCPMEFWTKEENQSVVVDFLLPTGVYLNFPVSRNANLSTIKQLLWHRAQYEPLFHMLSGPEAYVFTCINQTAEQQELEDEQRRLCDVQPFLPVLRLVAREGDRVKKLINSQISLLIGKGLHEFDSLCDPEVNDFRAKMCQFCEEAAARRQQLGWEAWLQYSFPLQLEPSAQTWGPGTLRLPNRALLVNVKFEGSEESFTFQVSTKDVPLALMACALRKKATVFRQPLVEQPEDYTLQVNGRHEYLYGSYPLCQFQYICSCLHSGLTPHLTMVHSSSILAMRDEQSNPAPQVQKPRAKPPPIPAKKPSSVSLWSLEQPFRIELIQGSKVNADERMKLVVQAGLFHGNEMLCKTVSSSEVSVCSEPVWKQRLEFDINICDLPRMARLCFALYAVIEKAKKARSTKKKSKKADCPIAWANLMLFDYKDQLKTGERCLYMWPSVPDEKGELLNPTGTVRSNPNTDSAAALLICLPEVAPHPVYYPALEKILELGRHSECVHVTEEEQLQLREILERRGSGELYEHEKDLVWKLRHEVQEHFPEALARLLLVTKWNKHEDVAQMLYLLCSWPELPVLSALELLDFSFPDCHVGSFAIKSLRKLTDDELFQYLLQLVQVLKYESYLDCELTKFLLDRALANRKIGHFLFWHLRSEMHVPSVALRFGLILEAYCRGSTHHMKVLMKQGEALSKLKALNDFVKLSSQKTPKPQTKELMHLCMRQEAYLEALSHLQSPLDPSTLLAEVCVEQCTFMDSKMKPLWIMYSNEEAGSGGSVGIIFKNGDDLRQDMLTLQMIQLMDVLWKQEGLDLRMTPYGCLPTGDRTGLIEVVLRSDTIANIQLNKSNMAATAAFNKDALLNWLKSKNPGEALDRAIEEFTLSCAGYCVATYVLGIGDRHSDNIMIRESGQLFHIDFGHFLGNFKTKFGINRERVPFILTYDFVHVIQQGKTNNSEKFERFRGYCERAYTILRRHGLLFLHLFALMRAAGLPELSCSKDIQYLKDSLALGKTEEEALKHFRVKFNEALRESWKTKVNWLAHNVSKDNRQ
# Chain of p110δ/p85α (P27986 whole entry partner): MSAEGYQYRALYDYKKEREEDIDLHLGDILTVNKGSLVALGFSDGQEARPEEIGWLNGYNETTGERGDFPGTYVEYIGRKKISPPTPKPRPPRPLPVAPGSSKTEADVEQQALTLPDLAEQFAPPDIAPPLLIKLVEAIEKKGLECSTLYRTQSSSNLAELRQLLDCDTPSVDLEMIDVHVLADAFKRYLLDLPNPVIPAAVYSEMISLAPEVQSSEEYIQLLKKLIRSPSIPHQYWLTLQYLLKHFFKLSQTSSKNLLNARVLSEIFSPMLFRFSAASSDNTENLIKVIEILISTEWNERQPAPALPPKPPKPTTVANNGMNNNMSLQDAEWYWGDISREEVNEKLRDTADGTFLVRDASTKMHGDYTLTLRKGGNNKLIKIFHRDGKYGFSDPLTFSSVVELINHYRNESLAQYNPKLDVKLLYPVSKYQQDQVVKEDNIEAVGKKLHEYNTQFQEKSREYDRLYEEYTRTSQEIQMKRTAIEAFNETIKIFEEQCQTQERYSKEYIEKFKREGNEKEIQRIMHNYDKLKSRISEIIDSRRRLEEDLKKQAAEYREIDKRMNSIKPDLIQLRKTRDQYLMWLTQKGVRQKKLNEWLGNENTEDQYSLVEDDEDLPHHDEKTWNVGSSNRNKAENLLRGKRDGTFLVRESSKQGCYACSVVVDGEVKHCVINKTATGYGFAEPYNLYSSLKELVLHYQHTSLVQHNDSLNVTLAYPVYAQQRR
# Procedure, shortened: as §1
# p110α/p85α = p110α/p85α (Homo sapiens, UniProt P42336); experiment: Transcreener KINASE Assay, kinase inhibition of p110α/p85α; type: biochemical; settings: 1 uM test compound
# Chain of p110α/p85α (P42336 whole entry): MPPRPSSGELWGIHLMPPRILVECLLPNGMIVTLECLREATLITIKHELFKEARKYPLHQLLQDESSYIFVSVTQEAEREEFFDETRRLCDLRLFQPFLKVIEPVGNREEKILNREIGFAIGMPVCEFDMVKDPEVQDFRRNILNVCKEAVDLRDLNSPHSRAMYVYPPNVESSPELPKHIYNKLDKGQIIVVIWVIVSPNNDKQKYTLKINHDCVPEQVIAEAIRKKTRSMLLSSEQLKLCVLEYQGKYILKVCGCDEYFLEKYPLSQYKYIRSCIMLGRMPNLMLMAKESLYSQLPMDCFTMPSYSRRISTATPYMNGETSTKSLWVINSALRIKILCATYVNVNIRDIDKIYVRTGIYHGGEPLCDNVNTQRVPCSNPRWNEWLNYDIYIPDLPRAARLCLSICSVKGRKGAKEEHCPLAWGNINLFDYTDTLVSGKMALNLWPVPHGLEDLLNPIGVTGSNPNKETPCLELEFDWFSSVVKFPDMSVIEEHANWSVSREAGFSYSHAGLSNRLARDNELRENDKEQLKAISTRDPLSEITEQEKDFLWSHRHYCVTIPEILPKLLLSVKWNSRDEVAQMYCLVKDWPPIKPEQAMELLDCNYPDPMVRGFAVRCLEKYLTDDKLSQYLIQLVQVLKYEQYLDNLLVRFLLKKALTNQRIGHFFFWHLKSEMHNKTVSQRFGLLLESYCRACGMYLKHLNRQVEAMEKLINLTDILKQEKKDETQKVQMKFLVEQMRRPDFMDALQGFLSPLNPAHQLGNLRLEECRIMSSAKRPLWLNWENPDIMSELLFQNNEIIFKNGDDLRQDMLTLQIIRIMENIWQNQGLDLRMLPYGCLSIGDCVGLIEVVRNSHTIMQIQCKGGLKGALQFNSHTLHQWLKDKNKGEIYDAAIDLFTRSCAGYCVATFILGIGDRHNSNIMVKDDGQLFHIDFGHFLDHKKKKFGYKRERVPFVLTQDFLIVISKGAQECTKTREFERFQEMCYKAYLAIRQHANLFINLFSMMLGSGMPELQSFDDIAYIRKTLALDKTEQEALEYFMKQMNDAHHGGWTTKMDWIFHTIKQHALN
# Chain of p110α/p85α (P27986 whole entry partner): as the sequence (P27986 whole entry partner) above
# Procedure, shortened: as §1
# Chain of p110γ (P48736 whole entry): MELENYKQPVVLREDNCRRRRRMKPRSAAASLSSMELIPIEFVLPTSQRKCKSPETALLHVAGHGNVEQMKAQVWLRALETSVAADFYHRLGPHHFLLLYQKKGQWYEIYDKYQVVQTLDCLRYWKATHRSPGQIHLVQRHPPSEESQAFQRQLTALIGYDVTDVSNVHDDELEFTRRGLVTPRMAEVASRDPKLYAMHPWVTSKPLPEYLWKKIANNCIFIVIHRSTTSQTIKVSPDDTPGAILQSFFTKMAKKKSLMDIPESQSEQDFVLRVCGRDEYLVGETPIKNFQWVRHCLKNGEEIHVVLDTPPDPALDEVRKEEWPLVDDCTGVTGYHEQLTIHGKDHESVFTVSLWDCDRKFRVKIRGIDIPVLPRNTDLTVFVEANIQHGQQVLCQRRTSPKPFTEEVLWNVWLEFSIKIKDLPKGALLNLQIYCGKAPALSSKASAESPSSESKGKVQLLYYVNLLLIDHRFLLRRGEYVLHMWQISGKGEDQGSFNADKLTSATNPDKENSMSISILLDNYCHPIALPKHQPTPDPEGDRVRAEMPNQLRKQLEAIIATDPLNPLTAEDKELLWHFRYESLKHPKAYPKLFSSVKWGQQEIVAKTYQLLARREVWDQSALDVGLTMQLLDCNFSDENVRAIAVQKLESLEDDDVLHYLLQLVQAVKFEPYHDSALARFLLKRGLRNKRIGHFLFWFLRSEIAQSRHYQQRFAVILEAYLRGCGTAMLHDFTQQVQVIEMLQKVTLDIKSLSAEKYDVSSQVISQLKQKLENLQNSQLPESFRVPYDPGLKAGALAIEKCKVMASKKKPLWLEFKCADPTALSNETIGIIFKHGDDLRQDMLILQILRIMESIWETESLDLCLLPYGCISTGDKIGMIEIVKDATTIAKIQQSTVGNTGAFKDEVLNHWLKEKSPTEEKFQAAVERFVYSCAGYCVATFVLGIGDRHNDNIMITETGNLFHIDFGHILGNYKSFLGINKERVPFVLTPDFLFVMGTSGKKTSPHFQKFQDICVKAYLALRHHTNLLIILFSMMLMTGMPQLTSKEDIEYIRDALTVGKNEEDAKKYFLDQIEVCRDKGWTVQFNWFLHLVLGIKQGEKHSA
Structure (SMILES),PI3Kγ IH % @ 1 uM (p110γ),IC50 (p110γ),PI3Kβ IH % @ 1 uM (p110β/p85α),IC50 (p110β/p85α),IC50 (PI3Kγ),PI3Kδ IH % @ 1 uM (p110δ/p85α),IC50 (p110δ/p85α),PI3Kα IH % @ 1 uM (p110α/p85α)
C[C@H]1CN(c2ncnc3[nH]cc(C#N)c23)C1c1nn2ccc(Cl)c2c(=O)n1-c1ccccc1 (some centres unmarked) [Compound 235],96.2%,12 nM,69.3%,211 nM,71 nM,>100%,4 nM,–
CC(=O)c1cnc(N)nc1N1C[C@H](C)[C@H]1c1nn2ccc(Cl)c2c(=O)n1-c1ccccc1 [Compound 301],>100%,13 nM,79.3%,223 nM,20 nM,>100%,4 nM,–
O=c1c2c(Cl)ccn2nc([C@@H]2CCCN2c2ncnc3[nH]cnc23)n1-c1ccccn1 [Compound 311],>100%,34 nM,79.4%,379 nM,–,>100%,–,10.1%
"C[S@+]([O-])c1c[nH]c2ncnc(N3CCC[C@H]3c3nn4ccc(Cl)c4c(=O)n3-c3ccccc3)c12 [Compound 382, 5-chloro-2-((S)-1-(5-((S)-methylsulfinyl)-7H-pyrrolo[2,3-d]pyrimidin-4-yl)pyrrolidin-2-yl)-3-phenylpyrrolo[2,1-f][1,2,4]triazin-4(3H)-one]",>100%,33 nM,84.4%,88 nM,–,99.0%,1 nM,14.1%
"C[S@@+]([O-])c1c[nH]c2ncnc(N3CCC[C@H]3c3nn4ccc(Cl)c4c(=O)n3-c3ccccc3)c12 [Compound 383, 5-chloro-2-((S)-1-(5-((R)-methylsulfinyl)-7H-pyrrolo[2,3-d]pyrimidin-4-yl)pyrrolidin-2-yl)-3-phenylpyrrolo[2,1-f][1,2,4]triazin-4(3H)-one]",>100%,17 nM,68.7%,741 nM,–,98.8%,4 nM,14.7%
C[C@H]1CN(c2nc(N)ncc2C#N)C1c1nn2ccc(Cl)c2c(=O)n1-c1ccccc1 (some centres unmarked) [Compound 431],95.9%,8 nM,51.3%,–,85 nM,96.2%,7 nM,–
Cc1nc(N)nc(N2C[C@H](C)C2c2nn3ccc(F)c3c(=O)n2-c2ccccc2)c1C#N (some centres unmarked) [Compound 436],98.7%,2 nM,78.5%,24 nM,37 nM,>100%,1 nM,–
Cc1nc(N)nc(N2C[C@H](C)[C@H]2c2nn3ccc(Cl)c3c(=O)n2-c2cccc(F)c2)c1C#N [Compound 461],>100%,7 nM,80.5%,54 nM,18 nM,>100%,0.4 nM,–
Cc1nc(N)nc(N2C[C@H](C)[C@H]2c2nn3ccc(F)c3c(=O)n2-c2cccc(F)c2)c1C#N [Compound 462],>100%,5 nM,80.5%,185 nM,90 nM,>100%,1 nM,–
CC(=O)c1cnc(N)nc1N1C[C@H](C)[C@H]1c1nn2ccc(Cl)c2c(=O)n1-c1cccc(F)c1 [Compound 467],94.3%,5 nM,77.1%,374 nM,39 nM,89.7%,1 nM,–
CC1(C)CN(c2nc(N)ncc2C#N)C1c1nn2ccc(Cl)c2c(=O)n1-c1ccccc1 (centres unmarked) [Compound 471],92.4%,7 nM,47.1%,–,96 nM,>100%,3 nM,–
Cc1nc(N)nc(N2CCC2c2nn3ccc(Cl)c3c(=O)n2-c2ccccn2)c1C#N (centres unmarked) [Compound 475],93.3%,13 nM,80.3%,83 nM,94 nM,94.9%,2 nM,–
"CC(=O)c1cnc(N)nc1N1CC[C@H]1c1nn2ccc(C(F)(F)F)c2c(=O)n1-c1ccccc1 [Compound 486, (S)-2-(1-(5-acetyl-2-aminopyrimidin-4-yl)azetidin-2-yl)-3-phenyl-5-(trifluoromethyl)pyrrolo[2,1-f][1,2,4]triazin-4(3H)-one]",>100%,13 nM,41.5%,–,51 nM,>100%,22 nM,–
Cc1nc(N)nc(N2CC[C@H]2c2nn3ccc(C(F)(F)F)c3c(=O)n2-c2ccccc2)c1C#N [Compound 487],>100%,8 nM,64.7%,–,46 nM,>100%,6 nM,–
CC(=O)c1cnc(N)nc1N1C[C@H](C)[C@H]1c1nn2ccc(C(F)(F)F)c2c(=O)n1-c1ccccc1 [Compound 489],>100%,8 nM,63.6%,296 nM,23 nM,>100%,3 nM,–
CC(=O)c1c(N)nc(N)nc1N1CCC1c1nn2ccc(Cl)c2c(=O)n1-c1ccccc1 (centres unmarked) [Compound 492],>100%,12 nM,50.7%,–,12 nM,97.73%,30 nM,–
CC(=O)c1c(N)nc(N)nc1N1C[C@H](C)C1c1nn2ccc(Cl)c2c(=O)n1-c1cccc(F)c1 (some centres unmarked) [Compound 493],>100%,8 nM,73.6%,250 nM,8 nM,99.7%,6 nM,–
